Assays:
Assay type in all cases: in vivo
Polygonum convolvulus [1] = test: Pre-emergence herbicidal action; conditions: 1280 g/ha, scored visually after about 3 weeks vs untreated controls
Procedure, shortened: (§1)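 Seeds were sown in pots and covered with soil; compounds formulated as WP or EC were sprayed onto the soil surface as aqueous suspension or emulsion with 0.5% additive at 600 l/ha water, 1280 g/ha. Greenhouse growth; visual % activity versus untreated controls after about 3 weeks (100% = plants dead).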

Lolium rigidum [2] = test: Pre-emergence herbicidal action; conditions: 1280 g/ha, scored visually after about 3 weeks vs untreated controls
Procedure, shortened: as §1

Setaria viridis [3] = test: Pre-emergence herbicidal action; conditions: 1280 g/ha, scored visually after about 3 weeks vs untreated controls
Procedure, shortened: as §1

Matricaria inodora [4] = test: Pre-emergence herbicidal action; conditions: 1280 g/ha, scored visually after about 3 weeks vs untreated controls
Procedure, shortened: as §1

Echinochloa crus-galli [5] = test: Pre-emergence herbicidal action; conditions: 1280 g/ha, scored visually after about 3 weeks vs untreated controls
Procedure, shortened: as §1

Abutilon theophrasti [6] = test: Pre-emergence herbicidal action; conditions: 1280 g/ha, scored visually after about 3 weeks vs untreated controls
Procedure, shortened: as §1

Hordeum murinum [7] = test: Pre-emergence herbicidal action; conditions: 1280 g/ha, scored visually after about 3 weeks vs untreated controls
Procedure, shortened: as §1

Amaranthus retroflexus [8] = test: Pre-emergence herbicidal action; conditions: 1280 g/ha, scored visually after about 3 weeks vs untreated controls
Procedure, shortened: as §1

Stellaria media [9] = test: Pre-emergence herbicidal action; conditions: 1280 g/ha, scored visually after about 3 weeks vs untreated controls
Procedure, shortened: as §1

Viola tricolor [10] = test: Pre-emergence herbicidal action; conditions: 1280 g/ha, scored visually after about 3 weeks vs untreated controls
Procedure, shortened: as §1

Alopecurus myosuroides [11] = test: Pre-emergence herbicidal action; conditions: 1280 g/ha, scored visually after about 3 weeks vs untreated controls
Procedure, shortened: as §1

Avena fatua = test: Pre-emergence herbicidal action; conditions: 1280 g/ha, scored visually after about 3 weeks vs untreated controls
Procedure, shortened: as §1

Polygonum convolvulus [12] = test: Post-emergence herbicidal action; conditions: 1280 g/ha, rated visually after about 3 weeks vs untreated controls
Procedure, shortened: (§2)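 Visual rating against untreated plants, about 3 weeks post-treatment, on a 0-100% scale where 100% means plant death. Treatment: 1280 g/ha of WP/EC preparations with 0.5% additive in 600 l/ha water, sprayed on one-leaf-stage weeds grown in greenhouse sandy loam.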

Lolium rigidum [13] = test: Post-emergence herbicidal action; conditions: 1280 g/ha, rated visually after about 3 weeks vs untreated controls
Procedure, shortened: as §2

Setaria viridis [14] = test: Post-emergence herbicidal action; conditions: 1280 g/ha, rated visually after about 3 weeks vs untreated controls
Procedure, shortened: as §2

Matricaria inodora [15] = test: Post-emergence herbicidal action; conditions: 1280 g/ha, rated visually after about 3 weeks vs untreated controls
Procedure, shortened: as §2

Echinochloa crus-galli [16] = test: Post-emergence herbicidal action; conditions: 1280 g/ha, rated visually after about 3 weeks vs untreated controls
Procedure, shortened: as §2

Abutilon theophrasti [17] = test: Post-emergence herbicidal action; conditions: 1280 g/ha, rated visually after about 3 weeks vs untreated controls
Procedure, shortened: as §2

Hordeum murinum [18] = test: Post-emergence herbicidal action; conditions: 1280 g/ha, rated visually after about 3 weeks vs untreated controls
Procedure, shortened: as §2

Amaranthus retroflexus [19] = test: Post-emergence herbicidal action; conditions: 1280 g/ha, rated visually after about 3 weeks vs untreated controls
Procedure, shortened: as §2

Stellaria media [20] = test: Post-emergence herbicidal action; conditions: 1280 g/ha, rated visually after about 3 weeks vs untreated controls
Procedure, shortened: as §2

Veronica persica = test: Post-emergence herbicidal action; conditions: 1280 g/ha, rated visually after about 3 weeks vs untreated controls
Procedure, shortened: as §2

Pharbitis purpurea [21] = test: Post-emergence herbicidal action; conditions: 1280 g/ha, rated visually after about 3 weeks vs untreated controls
Procedure, shortened: as §2

Viola tricolor [22] = test: Post-emergence herbicidal action; conditions: 1280 g/ha, rated visually after about 3 weeks vs untreated controls
Procedure, shortened: as §2

Alopecurus myosuroides [23] = test: Post-emergence herbicidal action; conditions: 1280 g/ha, rated visually after about 3 weeks vs untreated controls
Procedure, shortened: as §2

Pharbitis purpurea [24] = test: Pre-emergence herbicidal action; conditions: 1280 g/ha, scored visually after about 3 weeks vs untreated controls
Procedure, shortened: as §1

Row | SMILES | herbicidal activity on Polygonum convolvulus (Polygonum convolvulus [1]) | herbicidal activity on Lolium rigidum (Lolium rigidum [2]) | herbicidal activity on Setaria viridis (Setaria viridis [3]) | herbicidal activity on Matricaria inodora (Matricaria inodora [4]) | herbicidal activity on Echinochloa crus-galli (Echinochloa crus-galli [5]) | herbicidal activity on Abutilon theophrasti (Abutilon theophrasti [6]) | herbicidal activity on Hordeum murinum (Hordeum murinum [7]) | herbicidal activity on Amaranthus retroflexus (Amaranthus retroflexus [8]) | herbicidal activity on Stellaria media (Stellaria media [9]) | herbicidal activity on Viola tricolor (Viola tricolor [10]) | herbicidal activity on Alopecurus myosuroides (Alopecurus myosuroides [11]) | herbicidal activity on Avena fatua (Avena fatua) | herbicidal activity on Polygonum convolvulus (Polygonum convolvulus [12]) | herbicidal activity on Setaria viridis (Setaria viridis [14]) | herbicidal activity on Matricaria inodora (Matricaria inodora [15]) | herbicidal activity on Echinochloa crus-galli (Echinochloa crus-galli [16]) | herbicidal activity on Abutilon theophrasti (Abutilon theophrasti [17]) | herbicidal activity on Hordeum murinum (Hordeum murinum [18]) | herbicidal activity on Amaranthus retroflexus (Amaranthus retroflexus [19]) | herbicidal activity on Stellaria media (Stellaria media [20]) | further results
1 | COc1cnc(Oc2nn(C)c(C)c2Sc2ccccc2)nc1 [Example I-140] | 100% | 100% | 100% | 100% | 100% | 100% | 100% | 100% | 100% | 100% | 100% | 100% | 100% | 100% | 100% | 100% | 100% | 80% | 100% | 90% | herbicidal activity on Lolium rigidum (Lolium rigidum [13]): 80%; herbicidal activity on Veronica persica (Veronica persica): 100%; herbicidal activity on Pharbitis purpurea (Pharbitis purpurea [21]): 100%; herbicidal activity on Viola tricolor (Viola tricolor [22]): 100%; herbicidal activity on Alopecurus myosuroides (Alopecurus myosuroides [23]): 100%
2 | Cc1c(Sc2ccccc2)c(Oc2ncccn2)nn1C [Example I-126] | 100% | 100% | 100% | 100% | 100% | 100% | 100% | 100% | 100% | 100% | 100% | 100% | 100% | 100% | 80% | 100% | 100% | 80% | 100% | 100% | herbicidal activity on Pharbitis purpurea (Pharbitis purpurea [24]): 90%; herbicidal activity on Pharbitis purpurea (Pharbitis purpurea [21]): 100%; herbicidal activity on Viola tricolor (Viola tricolor [22]): 100%; herbicidal activity on Alopecurus myosuroides (Alopecurus myosuroides [23]): 100%

— patent US20200181117A1, “SUBSTITUTED 3-HETEROARYLOXY-1H-PYRAZOLES AND SALTS THEREOF AND THEIR USE AS HERBICIDAL ACTIVE SUBSTANCES” (BAYER CROPSCIENCE AKTIENGESELLSCHAFT, priority 2017, published 2020)
